Among the data in a melting point compilation (Tetko et al.; mined from patent text by program, amines drawn as free bases though some values may be those of a salt) are melting point values, retold here.

One may read the melting point as the temperature, or range, at which the solid turns liquid.

With `CCCCc1cnc(-c2ccc(C#N)c(F)c2)nc1`, the melting point amounted to 87 °C.
`CCOc1cccc(-c2nc(=O)c3ccccc3s2)n1` yielded a melting point of 180 °C.
Next, `O=C(O)c1cccc(C(=O)Nc2ccc(-n3nc(C(F)(F)F)cc3C(F)(F)F)cc2)c1`: 244 to 245 °C.
Next, `Cc1ccc(-c2ccccc2-n2c(C)n[nH]c2=O)cc1`: 102 to 104 °C.
The result for `CC1(C)C(C=C(F)C(=O)OCC(F)(F)F)C1C(=O)OC(C#N)c1ccc(F)c(Oc2ccccc2)c1` (stereo unspecified) reads 85 °C; that for `Nc1ccc(Oc2ccc3cccnc3c2)cc1`, 131 °C.
`N=C(NCc1cccs1)NN=Cc1c(Cl)cccc1Cl` displayed a melting point of 135 to 137 °C.
The result for `O=C1c2ccccc2C(=O)N1CCCN(c1ccccc1)c1ccccn1` reads 103 to 105 °C; that for `O=C(O)c1ccc(Oc2ccc3c(c2)CCN(C2CCN(C4CCC4)CC2)C3=O)cc1`, 255 to 256 °C.
Next, `CCC(CC)Oc1nc(C)nc(Nc2c(C)cc(C)cc2C)c1[N+](=O)[O-]`: 112 to 113 °C; `COc1ccc(CN(C(=O)C2CCOc3c(O)cccc32)c2ccc(C(C)C)cc2)cn1` (stereo unspecified): 141 °C; `O=[N+]([O-])c1cc(C=Cc2ccncc2)cc(O)c1O`: above 350 °C.
The result for `CC(=O)n1cc(Cl)c(-c2cccc3c2OC(F)(F)O3)n1` reads 131 °C; that for `C=CCOC1(C(F)(F)F)CN(C2CC2)C(=O)Nc2ccc(Cl)cc21` (stereo unspecified), 120 to 121 °C.
`CCSc1c(C(F)(F)F)nn(-c2c(Cl)cc(C(F)(F)F)cc2Cl)c1N` yielded a melting point of 116 °C.
Next, `Cc1ccc(-c2c(Cl)nc(-c3cccs3)nc2NS(=O)(=O)c2ccc(C(C)(C)C)cc2)cc1`: above 300 °C.
The result for `CCN(CCO)c1ccc(C(=O)OC)cc1` reads 61 to 64 °C; that for `CCc1c(N2CCC(N)CC2)c(F)cc2c(=O)c(C(=O)O)cn(C3CC3)c12`, 248 to 249 °C; that for `O=Cc1cccc2c1[nH]c1c3cc(Br)ccc3oc21`, 280 to 281 °C.
The result for `O=C(O)/C=C/c1cc(OCC2CC2)nn1Cc1ccc(C(F)(F)F)cc1Cl` reads 195 to 196 °C.
In turn, `CCc1c(-c2ccc(O)cc2)n(Cc2ccc(OCCN3CCCCC3)cc2)c2ccc(O)cc12` yielded a melting point of 160 to 164 °C.
Next, `CC(C)(C)c1ccc(C#N)cc1NC(=O)Nc1cccnc1`: 194 to 196 °C; `CCOC(=O)C1CCC(CS(=O)(=O)c2ccc(Oc3ccc(OC(F)(F)F)cc3)cc2)(N(O)C=O)CC1` (stereo unspecified): 150 to 151 °C.
Regarding `COC(=O)c1nscc1S(=O)(=O)Cl`, the melting point lay in the range of 42 to 46 °C.
The result for `COC(=O)c1ccc2nc(-c3ccc(C(C)(C)C)cc3)[nH]c2c1` reads 152 °C; that for `O=C(NC1=Nc2cc(OCCn3cccc3)ccc2C2=NCCN12)c1cccnc1`, 209 °C; that for `Cc1c(-c2ccccc2)oc2c(C(=O)CCC(=O)O)cccc2c1=O`, 191 to 192 °C.
`O=C1c2ccccc2OC(CCCl)CN1Cc1ccccc1` (stereo unspecified) registered a melting point of 145 to 147 °C.
The result for `CC(=NNc1nc(Cl)c(-c2c(F)cc(F)cc2F)c(NC(C)C(F)(F)F)n1)C(F)(F)F` (stereo unspecified) reads 205 to 207 °C; that for `CCOC(C)=C(C#N)C(=O)Nc1cccc(Cl)c1`, 166 to 168 °C; that for `Nc1nc(O)c2c(n1)NCC(CCc1c[nH]c(C(=O)O)c1)C2` (stereo unspecified), above 260 °C.
In the case of `COC(=O)C(=O)c1cn2c3c(cccc13)C(OC(C)=O)CC2` (stereo unspecified), the melting point lay in the range of 165 to 168 °C.
Next, `O=Cc1ccc(-c2ccc(-c3ccc(C=O)o3)cc2)o1`: 233 to 234 °C; `CC(=O)OC1CSC(Sc2ccc(C#N)cc2C#N)C(OC(C)=O)C1OC(C)=O` (stereo unspecified): 228 °C.
The result for `CCOC(=O)C1=CNC2=C(C(=S)Nc3ccccc3)CCC(C)N2C1=O` (stereo unspecified) reads 173 to 175 °C.
Next, `CC(=O)Nc1ccc(-c2cc(C(=O)c3ccccc3)sc2N2CCOCC2)cc1`: 165 °C; `O=C(O)CCn1c(=O)c(=O)[nH]c2cc([N+](=O)[O-])ccc21`: 148 to 156 °C; `CCN1CCN(C2=Nc3cc(Cl)ccc3Sc3ccccc32)CC1`: 100 to 101 °C.
`Cc1ccc(N2CCC(N)=N2)cc1` had a melting point of 142 to 143 °C.
Next, `COC(=O)C1(Cl)CC1C(=O)O` (stereo unspecified): 77.7 to 79.1 °C.
The result for `N#Cc1cccc(C2=NOC3(C2)OC(=O)c2ccccc23)c1` (stereo unspecified) reads 134 to 137 °C; that for `CCn1c(=O)c2[nH]c(/C=C/c3cc(C)ccc3C)nc2n(CC)c1=O`, 282 °C; that for `CCCCCCCCCCCCCCCCCCOc1cc(C(=O)OC)cc(C(=O)OC)c1`, 54 to 55 °C.
Next, `Oc1cc(-c2ccc(F)cc2)nc(-c2ccccn2)n1`: 197 to 198 °C.
`Cc1cc(-c2cccc(NC(=O)C3CCC3)c2)n2ncc(C(=O)c3cccs3)c2n1`: the melting point lay within 121 to 123 °C.
Next, `CCc1[nH]n(C2CCCC2)c2nc(Cc3cccn3C)nc(=O)c1-2`: 214 to 216 °C; `CCCN1C(=O)N2CC(Cc3ccccc3)N=C2c2[nH]c(C(OC)c3ccccc3)nc21` (stereo unspecified): 160 to 162 °C; `COC(=O)C(Cc1ccccc1)N1CC(N2C(=O)c3ccccc3C2=O)C1=O` (stereo unspecified): 153 to 156 °C.
The result for `CN1C(=O)N(CC(COc2ccc(-c3ccc(S(C)(=O)=O)cc3)cc2)N(O)C=O)C(=O)C1(C)C` (stereo unspecified) reads 174 to 175 °C; that for `CC1(C)OC(=O)c2c(cccc2-c2ccccn2)O1`, 142 °C; that for `CCC(=CC(CNC(=O)c1ccc(C)nc1)=NO)C(C)[N+](=O)[O-]` (stereo unspecified), 150 to 151 °C.
Next, `O=C(O)CSCC(O)CN1CCCCC1` (stereo unspecified): 152 °C.
Molecule `COc1ccc(-c2ocnc2-c2cc(OC)c(N)c(OC)c2)cc1O` registered a melting point of 126 to 130 °C.
The molecule `CCOC(=O)c1cn2c3c(c(Br)c(F)cc3c1=O)OCC2C` (stereo unspecified) came in with a melting point above 250 °C.
The result for `O=C(c1ccccc1F)c1ccc(O)c(Cl)c1Cl` reads 128 to 131 °C; that for `O=Cc1cccnc1S(=O)(=O)c1ccc(Cl)cc1`, 100 to 101 °C.
Next, `CC(C)(C)C(=O)N[C@H]1CC[C@H](CCN2CCN(c3nccc4c3CCO4)CC2)CC1`: 185 °C; `CON=CCCCn1c(C)nc2c(N)nc3ccccc3c21`: 153 to 155 °C; `O=Cc1cc2c(s1)CCCc1cc(=O)n(-c3ccc(Cl)cc3)nc1-2`: 170 to 172 °C.
The result for `COc1ccc(C(O)c2cccc(OCc3ccccc3)c2)cc1` (stereo unspecified) reads 50 to 60 °C.
Molecule `CCOC(=O)c1cc(=O)c2c(CC)cc(Cl)cc2[nH]1` showed a melting point of 182 to 183 °C.
The result for `COc1c(C)c(C)cc(C)c1C(O)(c1ccc(F)cc1)C(C)C` (stereo unspecified) reads 102 to 103 °C.
Next, `CCOC(=O)c1cc2c([nH]1)CN(C(=O)OCC(Cl)(Cl)Cl)CC2`: 126 to 127 °C; `Cc1ccc(C(=O)N[C@H]2CC[C@H](O)CC2)c(Nc2ccc3[nH]ncc3c2)n1`: above 280 °C.
The result for `O=C(Nc1ccc(O)cc1)Nc1cc(Cl)ccc1C(=O)O` reads 212 to 214 °C; that for `CCOC(=O)c1ccc([N+](=O)[O-])c(O)c1`, 80 to 81 °C.
`O=C(NCc1ccn(-c2cc3nc(C(=O)O)c(=O)[nH]c3cc2Cl)c1)Nc1cccc2ccccc12` gave a melting point of 196 to 198 °C.
Next, `COc1ccc(OC)c2c1C[C@](O)(C1(C)OCCO1)CC2=O`: 183 to 184 °C; `O=C1NCCC[C@@H]1NS(=O)(=O)c1ccc(F)cc1`: 153 to 156 °C; `CN(C)C(=O)Oc1ccc(Cl)c2c1C(=O)c1ccccc1C2=O`: 182 to 184 °C.
The result for `NC(=O)c1ccc([N+](=O)[O-])c(CN2C(=O)c3ccccc3C2=O)c1` reads 100 to 124 °C; that for `Nc1ccc(OCCCN2C(=O)c3ccccc3C2=O)cc1[N+](=O)[O-]`, 164 °C.
The molecule `OCC1OC(n2cnc3c(NCCc4cccs4)ncnc32)C(O)C1O` (stereo unspecified) had a melting point of 153 to 154 °C.
Molecule `COc1ccc(-c2nc(Oc3ccc(C)cc3)ncc2C(=O)N2CCOCC2)cc1OC` yielded a melting point of 152 °C.
The result for `COc1cc(OC)nc(NC(=O)NS(=O)(=O)c2sccc2C(CCl)OC(C)=O)n1` (stereo unspecified) reads 150 to 151 °C; that for `CNS(=O)(=O)CCc1ccc2[nH]cc(CC(=O)O)c2c1`, 123 to 125 °C.
With `COC(=O)CCc1cnoc1-c1ccc(Cl)c(Cl)c1`, the melting point lay in the range of 74 to 75 °C.
The result for `CCn1nnnc1C(C=O)=C(c1ccc(F)cc1)c1ccc(F)cc1` reads 144 to 145 °C; that for `CC(=O)OCc1cn(-c2ccccc2)nc1OCc1ccccc1`, 74 to 75 °C; that for `CCCn1c(=S)[nH]c(=S)c2[nH]c(C3CC3)nc21`, above 245 °C.
For `CCOC[C@H]1CN(c2ccc(OCc3ccccc3)cc2)C(=O)O1`, the melting point was found to be 92 °C.
The result for `CC(C)(C)OC(=O)N1CCC(c2ccc(C(=O)N3CCc4cc(S(C)(=O)=O)ccc43)nc2)CC1` reads 202 to 205 °C; that for `CC(C)NC(=O)C(C)(C)C`, 106 to 108 °C; that for `Cn1c(=O)oc2cc(CCCN3CCOCC3)cnc21`, below 80 °C.
Regarding `COC(=O)Nc1ccc(C(=O)O)cc1`, the melting point fell in the range of 195 to 196 °C.
Turning to `CCCC(C(=O)OCC)n1cnc(C(N)=O)c1` (stereo unspecified), the melting point came out at 95 °C.
The molecule `C1=CC(c2ccccc2)(c2ccc(N3CCOCC3)cc2)Oc2cc(N3CCOCC3)c3ccccc3c21` (stereo unspecified) showed a melting point of 187 to 188 °C.
Next, `CCCOc1ccccc1-c1nc(O)cc(C(=O)OCC)n1`: 137 to 138 °C.
The molecule `CC(=O)Oc1ccc(OC(C)=O)c(-c2ccc(C)cc2)c1` registered a melting point of 94 to 96 °C.
The result for `NCC(O)CSc1ccccc1` (stereo unspecified) reads 57 to 61 °C; that for `CCc1cc(OCc2ccc(-c3ccccc3C(=O)OC)cc2)c2ccccc2n1`, 132 to 134 °C.
